Key:
[1] = system: A549; test: Alamar blue cell proliferation assay, A549; type: cell-based, human; details: A549, 72 h; read-out: IC50 Assay B (Alamar blue cell proliferation)
Method: (§1) The effects of RgA on cell growth, survival, and cell death was then determined. […] Treatment with 5 μM of RgA caused an increase in G1 phase by approximately 23% in comparison to control and approximately 7% and 17% decreases in cells in S and G2/M phases, respectively. The induction in G1 phase cell cycle arrest by RgA is dose-dependent (FIG. 5A, FIG. 16). […] Jones and Thompson, Genes Dev. 2009, 23, 537-548. […] The IC50 values of RgA against several human cancer cell lines also was determined using the alamar blue cell proliferation assay.
(§2) Cells were seeded into a 96-well plate (Costar) in 180 μL culture media. After an overnight recovery, drugs were added and incubated for 72 h. After drug incubation, cells were added with 20 μL of alamar blue reagent and the plates were incubated at 37° C. for 6 h before reading the fluorescence (544 nm Ex/590 nm Em) with a plate reader. GraphPad Prism (v4.03) software was used to determine IC50 values using a four parameter logistic regression.

[2] = system: HCC1954; test: Alamar blue cell proliferation assay, HCC1954; type: cell-based, human; details: HCC1954, 72 h; read-out: IC50 Assay B (Alamar blue cell proliferation)
Method: as §1, §2

[3] = system: MCF-7; test: Alamar blue cell proliferation assay, MCF-7; type: cell-based, human; details: MCF-7, 72 h; read-out: IC50 Assay B (Alamar blue cell proliferation)
Method: as §1, §2

[4] = system: PANC10.05; test: Alamar blue cell proliferation assay, PANC10.05; type: cell-based, human; details: PANC 10.05, 72 h; read-out: IC50 Assay B (Alamar blue cell proliferation)
Method: as §1, §2

[5] = system: DLD1 WT; test: [3H]-2DG uptake in DLD1 WT cells; type: cell-based; details: DLD1 wild type
Method: (§3) The inhibitory activity of compounds on glucose transport was analyzed by measuring the cell uptake of [3H]-2DG as previously described. Ulanovskaya et al., Chem. Biol. 2011, 18, 222-230. Briefly, cells were washed twice and incubated in low-glucose medium for 10 min. Cells were added drugs and incubated for another 10 min before adding [3H]-2DG. After 10 min incubation with [3H]-2DG, cells were washed twice and lysed with 0.2 N NaOH plus 0.2% SDS. The cell lysate was transferred to a new tube containing 1 mL of optiphase supermix. Glucose uptake was quantified with a scintillation counter.

[6] = system: human red blood cells; test: [3H]-2DG uptake in human red blood cells; type: cell-based; details: human red blood cells that exclusively express GLUT1; read-out: IC50 [3H]-2DG uptake into red blood cells
Method: To determine which of the 17 rapafucin hits inhibited the transporter activity of GLUT1, an orthogonal glucose uptake assay using 2-deoxy-D-[3H] glucose ([3H]-2DG), a nonhydrolyzable, radioactive glucose analog, was employed. Each hit was separately incubated with A549 cells for 10 min before the amount of [3H]-2DG taken up by the cells was measured using scintillation counting. […] The effect of JW11-D2 on uptake of [3H]-2DG in human red blood cells that exclusively express GLUT1 was then determined. Helgerson and Carruthers, J. Biol. Chem. 1987, 262, 5464-5475. […] To further improve the potency of JW11-D2, a structure-activity relationship (SAR) study was performed by synthesizing 21 new analogs of JW11-D2 using different amino acid building blocks.
as §3

[7] = system: p53 and p21; test: Western blot of p53 and p21 in MCF-7 cells; type: cell-based, human; details: MCF-7, 24-h treatment, dose-dependent
Method: as §1
(§4) For western blot analysis, cells were harvested and lysed by RIPA buffer plus protease inhibitor. Cell lysates or samples from pull-down experiment were subjected to SDS/PAGE and then transferred to a nitrocellulose membrane. Membranes were first blocked in 5% (wt/vol) BSA in Tris-buffered saline plus 0.1% Tween 20 (TBST) at room temperature for 30 min and incubated with primary antibodies at 4° C. for overnight. Membranes were then washed three times with TBST and incubated with secondary antibodies at room temperature for another 1 h. Membranes were washed with TBST three times again and incubated with ECL substrate for 1 min at room temperature. Pictures were captured using a GeneSys Image Station.

[8] = system: PARP and caspase 7; test: Western blot of apoptosis markers in MCF-7 cells; type: cell-based, human; details: MCF-7, 5 μM, 72 h; inhibited by Z-VAD
Method: as §1, §4

[9] = system: MCF-7 tumors; test: MCF-7 breast cancer xenograft in NSG mice; type: in vivo
Method: Given that RgA inhibited multiple isoforms of GLUTs, including GLUT1, 3, and 4, it raised the question of whether animals could tolerate RgA. As breast cancer cell lines are more sensitive to RgA than other cell lines (FIG. 6A and Table 3), the anti-breast cancer activity of RgA in vivo was assessed. Two breast cancer cell lines were selected for the xenograft experiment-MCF-7, an ER+, HER2− line, and HCC1954, an ER−, HER2+ breast line. NSG mice bearing MCF-7 tumors were given daily vehicle or RgA at a dose of 2 mg/kg for […].
All animal studies were conducted in compliance with all relevant ethical regulations set forth by the Johns Hopkins University Animal Care and Use Committee (ACUC). Female mice aged 4-6 weeks and weighing 18-22 g were maintained in a pathogen-free facility at Johns Hopkins Medical Institutions and cared for according to National Institutes of Health guidelines and under a protocol approved by the Johns Hopkins University Animal Care Committee. For the xenograft experiment of MCF-7, 17β-estradiol pellets (0.72 mg per pellet, 60-day release, Innovative Research of America, FL) were implanted at 5 days prior to tumor cell injection. Approximately 5 million MCF-7 cells were implanted subcutaneously into NSG mice (n=6 per group, NSG, The Jackson Laboratory). For the xenograft experiment of HCC1954, approximately 2 million cells were implanted subcutaneously into athymic nude mice (n=6 per group, NCr-nu/nu, Charles River). After tumors became palpable, the mice bearing MCF-7 and HCC1954 tumors were treated with either vehicle (saline with 5% PEG400, 5% Tween80 and 5% DMSO) or RgA via intraperitoneal injection every day. The tumor volume was measured periodically using a Vernier caliper and calculated according to the modified ellipsoid formula: tumor volume (mm^3)=(short axis)^2×(long axis)×π/6. After 30 days of treatment, the mice were killed, and the tumor tissues were extracted and stored in 10% formalin solution for future use.

`CCC(C)C1C(=O)NCC(=O)N(C)CCC=CC(=O)OCC(C)(C)C(=O)C(=O)N2CCCCC2C(=O)OC(CCc2ccc(OC)c(OC)c2)c2cccc(c2)NC(=O)CCC(=O)N(C)C(CC(C)C)C(=O)NC(Cc2ccccc2)C(=O)N1C` (centres unmarked) [JW11-D2, Rapaglutin A] was tested, and the IC50 [1] was 189 nM, the IC50 [2] was 109 nM and the IC50 [3] was 87.3 nM. It also gave an IC50 [4] of 119 nM, an EC50 [5] of 17.5 ± 2.5 nM and an IC50 [6] of 34.2 nM. For the same molecule, the “p53 and p21 activation” value [7] was “activation of both p53 and p21”, the “PARP and caspase 7 cleavage (apoptosis)” value [8] was “resulted in poly(ADP-ribose) polymerase (PARP) and caspase 7 cleavage” and the tumor weight ([9]; MCF-7 in NSG mice, 2 mg/kg daily, vehicle 454 mg) was 285 mg. For the same molecule, the “tumor volume index on day 38” value ([9]; MCF-7 in NSG mice, 2 mg/kg intraperitoneally daily, vehicle 2.84) was 1.70 and the “weight loss and signs of adverse effects” value ([9]; MCF-7 xenograft mice, 2 mg/kg daily) was “no significant weight loss or any signs of adverse effects”.
